# Measurements reported in patent US8586629B2, “Composition for the treatment of oxidative stress” (Probiox SA, priority 2008, dated 2013).
# Like-named read-outs stand apart in the source and are kept apart here.
# How the values were obtained:
# [1] = 6 week supplementation; cited from earlier work
# oxidized LDL = assay: Clinical study: plasma oxidized LDL in women under Yasmin; format: in vivo; details: for number of responders (minimum of 35% decrease of oxLDL): T4 versus T0; for effect on LDL oxidation: general conclusion; for oxLDL at T4 compared to T0: plasma, within arm
# Excerpt: (§1) Subjects: 60 women were selected on the basis of the below-mentioned selection criteria and divided into 4 groups. Keeping a possible dropout in mind (in total 45 women completed the study), these groups were designed such, that by the end of the study; groups SOCO_A and SOCO_D would contain 15 subjects; and groups SOCO_B and SOCO_C would contain 10 subjects.
# (§2) Inclusion Criteria: • Age: between 18 and 35 years • Informed consent collected • Patients under oral contraception with Yasmin for at least three months
# (§3) Whereby one menstrual cycle is flanked by 2 vertical lines and, whereby: • SOCO_A) represents the intake of a combination of a Zinc supplement and a Quercetin supplement • SOCO_B) represents the intake of a Zinc supplement • SOCO_C) represents the intake of a Quercetin supplement • SOCO_D) represents the intake of a placebo supplement
# (§4) And whereby: • V1 represents a first visit between day −42 and day −14 • V2 represents a second visit between day −7 and −3 • V3 represents a third visit between day 23 and 27 • V4 represents a fourth visit between day 51 and 55 • V5 represents a fifth visit between day 113 and 117
# (§5) SOCO_A: Quercetin DC 500 mg • Zinc picolinate 20% (elementary 22.5 mg) 113 mg • Magnesium stearate 3 mg • 1 capsule per day during 112 days
# (§6) SOCO_B: Zinc picolinate 20% (elementary 22.5 mg) 113 mg • Dicalcium phosphate 125 mg • Cellulose microcrystals 375 mg • Magnesium stearate 3 mg • 1 capsule per day during 112 days
# (§7) SOCO_C: Quercetin DC 500 mg • Dicalcium phosphate 85 mg • Cellulose microcrystals 28 mg • Magnesium stearate 3 mg • 1 capsule per day during 112 days
# (§8) SOCO_D: Dicalcium phosphate 460 mg • Cellulose microcrystals 153 mg • Magnesium stearate 3 mg • 1 capsule per day during 112 days
# (§9) A blood sample (2-3 tubes of +/−5 ml) was collected during each visit. A maximum of 60 ml blood was required per subject for the whole study. Blood samples for haematological and biochemical tests were collected during V1 and V5, and blood samples for oxidative stress assessment were collected during V2, V3, V4 and V5.
# (§10) Plasma concentration of lipid peroxides, copper and zinc were determined in blood samples taken at V2, V3, V4 and V5. Plasma concentration of oxidized LDL was determined in blood samples taken at V2 and V5. The expression of 200 genes involved in oxidative stress were determined via quantitative measurements of mRNA expression by microarray, in blood samples taken at V2 and V5.
# [2] = hypobaric hypoxia studies and COPD study; cited from earlier work
# [3] = zinc supplemented group; cited from earlier work
# [4] = zinc supplementation; cited from earlier work
# LDL [5] = details: zinc supplementation; cited from earlier work
# LDL [6] = details: in vitro; cited from earlier work
# [7] = supplementation; cited from earlier work
# [8] = Clinical study: plasma lipid peroxides, copper and zinc in women under Yasmin; format: in vivo
# Excerpt: as §1, §2, §3, §4, §5, §6, §7, §8, §9, §10
molecule,measurement,setting,value
C[C@@H]1O[C@@H](OC[C@H]2O[C@@H](Oc3c(-c4ccc(O)c(O)c4)oc4cc(O)cc(O)c4c3=O)[C@H](O)[C@@H](O)[C@@H]2O)[C@H](O)[C@H](O)[C@H]1O [rutin],levels of three plasma flavonoids,[1],significantly elevated
"O=c1c(O)c(-c2ccc(O)c(O)c2)oc2cc(O)cc(O)c12 [quercetin alone, Quercetin]",number of responders (minimum of 35% decrease of oxLDL),oxidized LDL,0%
same,effect on LDL oxidation,oxidized LDL,weak effect
same,oxLDL at T4 compared to T0,oxidized LDL,weak significant decrease
[Zn] [zinc],oxidative stress markers,[2],no effects
same,incidence of infection,[3],significantly lower
same,lipid peroxides,[3],significant diminution
same,oxidative stress markers,[4],did not alter
same,Cu-induced LDL oxidation,LDL [5],no effects
O=c1c(O)c(-c2ccc(O)c(O)c2)oc2cc(O)cc(O)c12 [quercetin],inhibition of oxidative damage to LDL,LDL [6],most effective inhibitor
same,protection from oxidative stress induced damage,[7],does not exert protection
Zinc picolinate [Zinc alone],number of responders (minimum of 35% decrease of oxLDL),oxidized LDL,0%
same,effect on LDL oxidation,oxidized LDL,No effect
same,oxLDL at T4 compared to T0,oxidized LDL,no significant changes
same,mean relative change in Cu/Zn between T4 and T0 (mean Cu/Zn decrease),[8]; compared to placebo,significant
same,mean relative change in Zn between T4 and T0 (mean zinc increase),[8]; compared to placebo,significant
same,mean relative change in Cu/Zn between T4 and T0 (mean Cu/Zn decrease),[8]; compared to quercetin alone,significant
same,mean relative change in Zn between T4 and T0 (mean zinc increase),[8]; compared to quercetin alone,significant
